According to ChEMBL document CHEMBL5137107, “Optimization of hERG and Pharmacokinetic Properties for Basic Dihydro-8H-purin-8-one Inhibitors of DNA-PK” (ACS Med Chem Lett, 2022):
Values after ≈ are worked out from the molar mass of the structure shown.

What was measured:
[1] = Volume of distribution at steady state in Han Wistar rat at 5 mg/kg, po or 2 mg/kg, iv; format: ADME, organism-based; conditions: in vivo
[2] = Oral bioavailability in Han Wistar rat at 5 mg/kg; format: ADME, organism-based; conditions: in vivo
[3] = Oral bioavailability in Beagle dog at 2 mg/kg; format: ADME, organism-based, Canis lupus familiaris; conditions: in vivo
[4] = Solubility of the compound in FaSSIF at pH 6.5; format: physicochemical
[5] = Volume of distribution at steady state in Beagle dog at 2 mg/kg, po or 1 mg/kg, iv; format: ADME, organism-based, Canis lupus familiaris; conditions: in vivo
[6] = Apparent permeability of compound across apical to basal membrane in human Caco-2 by ABBA assay; format: ADME, cell-based
[7] = Acid dissociation constant, pKa of the compound; format: physicochemical
[8] = 1-Octanol/aqueous buffer partition coefficient, logD of the compound at pH 7.4 by shake flask technique based UPLC analysis; format: physicochemical
[9] = Cardiotoxicity in guinea pig assessed as unbound concentration required to increase in QTc level by 10% administered as iv infusion consecutively for 15 mins; format: toxicity, organism-based, Cavia porcellus; conditions: in vivo
[10] = Solubility of the compound; format: physicochemical
[11] = Cardiotoxicity in guinea pig assessed as increase in QTc level by measuring unbound Cmax at 3 to 30 mg/kg administered as iv infusion consecutively for 15 mins; format: toxicity, organism-based, Cavia porcellus; conditions: in vivo, dose 3-30 mg/kg

Row | SMILES | pKa [7] | logD [8] | further results
1 | Cc1cc2ncccc2cc1Nc1ncc2c(n1)n([C@@H]1CNC[C@H]1F)c(=O)n2C | 7.3 | 1.6 | Vdss [1]: 2.1 L/kg; bioavailability [2]: 58%; bioavailability [3]: 52%; solubility [4]: 872 µM (≈ 343 µg/mL); Vdss [5]: 5.4 L/kg; Papp A→B [6]: 9.4 ×10⁻⁶ cm/s
2 | Cc1cc2ncccc2cc1Nc1ncc2c(n1)n([C@@H]1CNC[C@@H]1F)c(=O)n2C | 7.2 | 1.7 | 
3 | Cc1cc2ncccc2cc1Nc1ncc2c(n1)n([C@@H]1CN(C)C[C@H]1F)c(=O)n2C | 6.5 | 2.1 | 
4 | Cc1cc2ncccc2cc1Nc1ncc2c(n1)n([C@@H]1CCN(C)C1)c(=O)n2C | 8.7 | 1.2 | 
5 | Cc1cc2ncccc2cc1Nc1ncc2c(n1)n([C@@H]1CN(C)C[C@@H]1F)c(=O)n2C |  | 2.2 | 
6 | Cc1cc2ncccc2cc1Nc1ncc2c(n1)n(C1CCN(C)CC1)c(=O)n2C | 8.2 | 1.8 | EC10 [9]: 2.3 µM; solubility [10]: 178 µM (≈ 71.8 µg/mL); Papp A→B [6]: 14 ×10⁻⁶ cm/s
7 | Cc1cc2ncccc2cc1Nc1ncc2c(n1)n([C@H]1CCN(CCO)C1)c(=O)n2C | 8.2 | 0.9 | Papp A→B [6]: 2.6 ×10⁻⁶ cm/s
8 | Cc1cc2ncccc2cc1Nc1ncc2c(n1)n(C1CCNCC1)c(=O)n2C |  | 0.5 | Papp A→B [6]: 0.7 ×10⁻⁶ cm/s
9 | Cc1cc2ncccc2cc1Nc1ncc2c(n1)n([C@H]1CCN(C3COC3)C1)c(=O)n2C |  | 1.5 | 
10 | Cc1cc2ncccc2cc1Nc1ncc2c(n1)n([C@H]1CCN(C)C1)c(=O)n2C | 8.9 | 1.1 | EC10 [11]: 3.9 µM; Papp A→B [6]: 19 ×10⁻⁶ cm/s
11 | COCCN1CC[C@H](n2c(=O)n(C)c3cnc(Nc4cc5cccnc5cc4C)nc32)C1 |  | 1.7 | 

Continued, in another order:

Row | pKa [7] | logD [8] | SMILES | further results
12 |  | 0.3 | Cc1cc2ncnn2cc1Nc1ncc2c(n1)n(C1CCN(C)CC1)c(=O)n2C | 
13 |  | 2.5 | Cc1cc2ncccc2cc1Nc1ncc2c(n1)n(C1CCOCC1)c(=O)n2C | 
14 |  | 2.2 | Cc1cc2nnccc2cc1Nc1ncc2c(n1)n(C1CCOCC1)c(=O)n2C | 
15 |  | 2.2 | Cc1cc2ncncc2cc1Nc1ncc2c(n1)n(C1CCOCC1)c(=O)n2C | 
16 |  | 2.2 | Cc1cc2nccnc2cc1Nc1ncc2c(n1)n(C1CCOCC1)c(=O)n2C | 
17 |  | 1.2 | Cc1cc2nccnc2cc1Nc1ncc2c(n1)n(C1CCN(C)CC1)c(=O)n2C | 
18 |  | 1.2 | Cc1cc2nnccc2cc1Nc1ncc2c(n1)n(C1CCN(C)CC1)c(=O)n2C | 
19 |  | 1.3 | Cc1cc2ncnn2cc1Nc1ncc2c(n1)n(C1CCOCC1)c(=O)n2C [AZD-7648] | 
